Measured values: the supplement of paper PMC10307832

How the values were obtained:
Experiment in all cases: relative viability (nuclei count vs DMSO), 5 days (fraction); higher = more cells survive
Selisistat + Pemetrexed = compound: C1CC(C2=C(C1)C3=C(N2)C=CC(=C3)Cl)C(=O)N [Selisistat] + Nc1nc2[nH]cc(CCc3ccc(C(=O)N[C@@H](CCC(=O)O)C(=O)O)cc3)c2c(=O)[nH]1 [Pemetrexed] (partner 0.2 µM)
Outline: (§1)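 Lung cancer cell lines in 1536-well plates were dosed by pin tool the day after seeding, either with one drug alone or with a fixed anchor-drug dose plus five library-drug doses (not always all listed) in √10 steps. After 5 days, cells were fixed and their nuclei stained in one step (final 0.05% Triton X-100, 1% formaldehyde, 1 ug/ml Hoechst), then counted on 4× images. Relative viability is the nuclei count in treated wells divided by that in vehicle wells. Values are medians of duplicate plates.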

Selisistat + Palbociclib = compound: C1CC(C2=C(C1)C3=C(N2)C=CC(=C3)Cl)C(=O)N [Selisistat] + CC(=O)c1c(C)c2cnc(Nc3ccc(N4CCNCC4)cn3)nc2n(C2CCCC2)c1=O [Palbociclib] (partner 0.5 µM)
Outline: as §1

Serdemetan + Decitabine = compound: c1ccc2c(CCNc3ccc(Nc4ccncc4)cc3)c[nH]c2c1 [Serdemetan] + Nc1ncn([C@H]2C[C@H](O)[C@@H](CO)O2)c(=O)n1 [Decitabine] (partner 2 µM)
Outline: as §1

Serdemetan + Alpelisib = compound: c1ccc2c(CCNc3ccc(Nc4ccncc4)cc3)c[nH]c2c1 [Serdemetan] + Cc1nc(NC(=O)N2CCC[C@H]2C(N)=O)sc1-c1ccnc(C(C)(C)C(F)(F)F)c1 [Alpelisib] (partner 2 µM)
Outline: as §1

Cell Line | relative viability (Selisistat + Pemetrexed; first compound 0.4 µM) | relative viability (Selisistat + Pemetrexed; first compound 1.265 µM) | relative viability (Selisistat + Pemetrexed; first compound 4 µM) | relative viability (Selisistat + Pemetrexed; first compound 12.65 µM) | relative viability (Selisistat + Pemetrexed; first compound 40 µM) | relative viability (Selisistat + Palbociclib; first compound 0.4 µM) | relative viability (Selisistat + Palbociclib; first compound 1.265 µM) | relative viability (Selisistat + Palbociclib; first compound 4 µM) | relative viability (Selisistat + Palbociclib; first compound 12.65 µM) | relative viability (Selisistat + Palbociclib; first compound 40 µM) | relative viability (Serdemetan + Decitabine; first compound 0.04 µM) | relative viability (Serdemetan + Decitabine; first compound 0.1265 µM) | relative viability (Serdemetan + Decitabine; first compound 0.4 µM) | relative viability (Serdemetan + Decitabine; first compound 1.265 µM) | relative viability (Serdemetan + Decitabine; first compound 4 µM) | relative viability (Serdemetan + Alpelisib; first compound 0.04 µM) | relative viability (Serdemetan + Alpelisib; first compound 0.1265 µM) | relative viability (Serdemetan + Alpelisib; first compound 0.4 µM) | relative viability (Serdemetan + Alpelisib; first compound 1.265 µM) | relative viability (Serdemetan + Alpelisib; first compound 4 µM)
NCI-H1975 | 0.275 | 0.283 | 0.3 | 0.278 | 0.316 | 0.585 | 0.585 | 0.38 | 0.478 | 0.523 | 0.421 | 0.369 | 0.306 | 0.262 | 0.34 | 0.68 | 0.675 | 0.666 | 0.637 | 0.803
CAL-12T | 1.29 | 1.25 | 1.3 | 1.12 | 1.23 | 0.534 | 0.41 | 0.122 | 0.448 | 0.409 | – | – | – | – | – | 1.11 | 1.5 | 1.23 | – | 1.18
HCC-44 | 0.681 | 0.675 | 0.655 | 0.685 | 0.691 | 1.05 | 0.975 | 1.07 | 0.994 | 1.06 | 0.895 | 0.954 | 0.925 | 0.865 | 0.961 | 0.714 | 0.772 | 0.75 | 0.532 | 0.636
EKVX | 0.348 | 0.314 | 0.361 | 0.342 | 0.404 | 0.364 | 0.351 | 0.329 | 0.376 | 0.353 | 0.322 | 0.33 | – | – | 0.291 | 0.876 | 0.911 | 0.804 | 0.676 | 0.619
NCI-H1651 | 0.64 | 0.673 | 0.51 | 0.519 | 0.497 | 0.508 | 0.532 | 0.499 | 0.474 | 0.517 | 0.486 | 0.414 | 0.497 | 0.275 | 0.289 | 0.889 | 0.78 | 0.65 | 0.371 | 0.213
NCI-H1944 | 0.634 | 0.575 | 0.458 | 0.674 | 0.584 | 0.351 | 0.285 | 0.276 | 0.326 | 0.351 | 0.493 | 0.409 | 0.384 | 0.269 | 0.295 | 0.806 | 0.753 | 0.715 | – | 0.453
NCI-H1703 | – | – | – | – | – | – | – | – | – | – | – | – | – | – | – | 0.389 | 0.345 | 0.306 | 0.277 | 0.374
Calu-6 | – | – | – | – | – | – | – | – | – | – | – | – | – | – | – | 0.934 | 1.01 | 0.929 | 0.788 | 0.674
EBC-1 | – | – | – | – | – | – | – | – | – | – | – | – | – | – | – | 0.739 | 0.865 | 0.752 | 0.793 | 0.623
SW 1573 | 0.798 | 0.774 | – | 0.815 | 0.776 | 0.353 | 0.366 | – | 0.371 | 0.388 | 0.484 | 0.522 | 0.427 | 0.249 | 0.219 | 0.7 | 0.791 | 0.722 | 0.463 | 0.385
A-427 | 0.996 | 1.04 | – | 1.07 | 0.988 | 0.57 | 0.485 | – | 0.57 | 0.554 | 0.555 | 0.56 | 0.606 | 0.513 | 0.45 | 1.05 | 1.05 | 1.1 | 0.833 | 0.561
NCI-H2347 | 0.526 | 0.425 | 0.374 | 0.411 | 0.432 | 0.38 | 0.438 | – | 0.409 | 0.447 | 0.638 | 0.615 | 0.583 | 0.474 | 0.527 | 0.936 | 1.02 | 1.01 | 0.866 | 0.703
NCI-H1355 | 1.12 | 1.08 | 1 | 1.08 | 1.11 | 0.432 | 0.401 | 0.389 | 0.438 | 0.437 | 0.382 | 0.34 | 0.306 | 0.288 | 0.31 | 0.952 | 0.786 | 0.752 | 0.875 | 0.774
NCI-H358 | 0.182 | 0.221 | 0.158 | 0.177 | 0.19 | 0.137 | 0.128 | 0.128 | 0.192 | 0.149 | 0.186 | 0.234 | 0.221 | 0.18 | 0.195 | 0.86 | 0.946 | 0.906 | 0.679 | 0.734
PC-3 [JPC-3] | 1.14 | 1.15 | – | 0.951 | 1.02 | 0.608 | 0.636 | – | 0.571 | 0.529 | 0.901 | 0.844 | 0.854 | 0.847 | 0.742 | 1.04 | 0.979 | – | 1.01 | 1.05
NCI-H2228 | 0.32 | 0.308 | 0.344 | 0.325 | 0.408 | 0.797 | 0.726 | 0.802 | 0.795 | 0.801 | – | – | – | – | – | 0.762 | 0.554 | 0.46 | 0.307 | 0.294
HOP-62 | 0.327 | 0.284 | 0.448 | 0.284 | 0.488 | 0.43 | 0.43 | 0.508 | 0.424 | 0.619 | 0.195 | 0.256 | 0.22 | 0.196 | 0.177 | 0.966 | 0.914 | 0.947 | 0.76 | 0.841
HARA | 0.266 | 0.27 | – | 0.303 | 0.215 | 0.295 | 0.242 | 0.241 | 0.275 | 0.251 | 0.542 | 0.47 | 0.409 | 0.344 | 0.379 | 0.783 | 0.819 | 0.741 | – | 0.391
NCI-H838 | 0.243 | 0.243 | 0.222 | 0.228 | 0.226 | 0.208 | 0.223 | 0.185 | 0.242 | 0.206 | 0.437 | 0.459 | 0.404 | 0.386 | 0.451 | 0.994 | 0.953 | 0.995 | 0.962 | 1.13
NCI-H1755 | 0.406 | 0.431 | 0.524 | 0.619 | 0.366 | 0.457 | 0.465 | 0.428 | 0.485 | 0.439 | 0.697 | 0.73 | 0.668 | 0.488 | 0.434 | 0.893 | 0.898 | 0.815 | 0.499 | 0.456
